Laboratory results published in patent US20090197957A1, “Methods and compositions for the treatment of pain” (Nuon Therapeutics, Inc., priority 2005, published 2009).
“And” between values parts separate entries of the source, which are not always exact repeats. Identical values can stand only once.

Experiments:
[1] = tested on: acetic acid-induced writhing; assay: Analgesia, acetic acid writhing in mice (Assay #503900, Example 1); format: in vivo, mouse; details: for No. of Writhing Average: group of 5 mice; for % Inhibition: relative to vehicle control; for No. of Writhing Individual: single mice
Description: Tranilast was evaluated for possible analgesic activity in the mouse acetic acid-induced writhing model. Tranilast at 100, 200 and 400 mg/kg was administered orally (PO) 1 hour before intraperitoneal injection of acetic acid (0.5%, 20 ml/kg).
Tranilast, provided by Angiogen Pharmaceuticals Pty. Ltd., was dissolved in 1% NaHCO3 (heated to 70° C.) and administered orally at doses of 100, 200 and 400 mg/kg at 60 minutes before acetic acid injection. The dosing volume was 10 ml/kg.
Male CD-1 (Crl.) derived mice weighing 24±2 g were provided by BioLasco Taiwan (under a Charles River Laboratories Technology licensee). Space allocation for 10 animals was 29×18×13 cm. Mice were housed in APEC^R cages. All animals were maintained in a controlled temperature (22° C.-24° C.) and humidity (60%-70%) environment with 12 hours light dark cycles for at least one week in MDS Pharma Services—Taiwan Laboratory prior to use. Free access to standard lab chow for mice (Lab Diet, Rodent Diet, PMI Nutrition International, USA) and tap water was granted. All aspects of this work including housing, experimentation and disposal of animals were performed in general accordance with the Guide for the Care and Use of Laboratory Animals (National Academy Press, Washington, D.C., 1996).
Test substance was administered PO (400, 200 and 100 mg/kg) to groups of 5 CD-1 (Crl.) derived male or female mice weighing 22±2 g one hour before injection of acetic acid (0.5%, 20 ml/kg IP). Reduction in the number of writhes by 50 percent or more (≧50%) per group of animals observed during the 5 to 10 minute period after acetic acid administration, relative to the vehicle-treated control group, indicates possible analgesic activity.
Test substance was administered orally to groups of 5 mice 60 minutes before injection of Acetic Acid (0.5%, 20 ml/kg IP). The number of writhing per group of animals observed during the 5 to 10 minutes period after acetic acid challenge was observed. Reduction in the number of writhings by 50 percent or more (≧50%) relative to the vehicle-treated control group indicates possible analgesic activity.

[2] = tested on: astrocytes in the spinal cord (GFAP); assay: GFAP immunohistochemistry of lumbar spinal cord (astrocytic activation); format: in vivo, mice; details: 10 days following onset of arthritis; 3,4-DAA 200 mg/kg/day, dexamethasone 0.5 mg/kg/2 days
Description: FIG. 6 is an image depicting that 3,4-DAA inhibits mechanical and thermal allodynia, and inhibits astrocytic activation in arthritic mice. Mechanical (a) and thermal (b) allodynia, and paw swelling (c) and clinical score (d) were assessed in naïve mice on the day of arthritis onset, and up to 10 days following therapy with 200 mg/kg 3,4-DAA, […] dexamethasone, or vehicle. […] Whilst 3,4-DAA therapy reduced astrocytic activation (bottom right panel) dexamethasone had no action on GFAP levels (bottom left panel). Quantification of the number of hyper-plastic astrocytes in the spinal cord 10 days following onset of arthritis was performed (f).
Upon completion of treatment, animals were sacrificed by CO2 exposure, and the lumbar spinal cord was excised, fixed (10% formalin), and embedded in paraffin. Immunohistochemistry was then performed to detect astrocytes with a rabbit-anti GFAP (glial fibrillary acidic protein) antibody (Dako Cytomation, Glostrup, Denmark). Antibody detection was performed using an ABC peroxidase method (Vector Laboratories, High Wycombe, Bucks., U.K.) (32).
Astrocytic activation has been proposed to be important for the generation of both inflammatory and neuropathic hypersensitivity [Bao et al., 2001, Neuroreport 12:3905-3908; Watkins et al., 2001, Trends Neurosci. 24:450-455]. Astrocytic activation in the spinal cord in CIA was therefore assessed. […]

[3] = tested on: anti-type II collagen IgG1 and IgG2a; assay: Serum anti-collagen antibody levels (ELISA); format: in vivo, DBA/1 mice
Description: ELISA plates (Nunc, Uxbridge, UK) were coated with 2 μg/ml of bovine CII dissolved overnight in Tris Buffer (0.05 M Tris, containing 0.2 M NaCl, pH 7.4) blocked with 2% bovine serum albumin (BSA) and then incubated with serial dilutions of test sera. A reference sample was included on each plate. Bound total IgG, IgG1 or IgG2a was detected by incubation with HRP-conjugated sheep anti-mouse IgG, IgG1 or IgG2a, followed by TMB substrate. Optical density was measured at 450 nm.

[4] = molecular target: T1, Cyclooxygenase COX-2 (Homo sapiens, UniProt P35354); assay: 118010 Cyclooxygenase COX-2 biochemical assay (EIA quantitation of PGE2)
T1 construct: host or cells: insect Sf21
T1 sequence (P35354 18-604): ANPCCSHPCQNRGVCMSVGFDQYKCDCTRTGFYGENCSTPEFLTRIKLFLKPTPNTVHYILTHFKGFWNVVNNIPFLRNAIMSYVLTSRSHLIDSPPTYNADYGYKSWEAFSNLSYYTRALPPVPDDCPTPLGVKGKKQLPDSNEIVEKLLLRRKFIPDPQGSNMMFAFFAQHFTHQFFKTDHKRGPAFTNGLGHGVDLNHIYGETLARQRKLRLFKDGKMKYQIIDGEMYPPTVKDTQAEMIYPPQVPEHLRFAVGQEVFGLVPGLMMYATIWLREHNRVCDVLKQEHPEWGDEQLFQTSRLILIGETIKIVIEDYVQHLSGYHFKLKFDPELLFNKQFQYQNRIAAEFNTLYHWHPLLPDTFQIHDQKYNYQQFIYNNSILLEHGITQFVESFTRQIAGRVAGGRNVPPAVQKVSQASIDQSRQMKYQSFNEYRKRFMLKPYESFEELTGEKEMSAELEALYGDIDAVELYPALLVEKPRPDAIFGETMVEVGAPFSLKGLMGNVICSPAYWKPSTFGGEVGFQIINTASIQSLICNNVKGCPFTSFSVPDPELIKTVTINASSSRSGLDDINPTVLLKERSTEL
Description: (§1) Methods employed in this study have been adapted from the scientific literature to maximize reliability and reproducibility. […] Assays were performed under conditions described in the accompanying “Methods” section of this report. The literature references for each assay are in the “Literature References” section. If either of these sections were not originally requested with the accompanying report, please contact us at the number below for a printout of either of these report sections.
(§2) Biochemical assay results are presented as the percent inhibition of specific binding or activity throughout the report.

[5] = molecular target: Cyclooxygenase COX-1 (Homo sapiens, UniProt P23219); assay: biochemical
Sequence of Cyclooxygenase COX-1 (P23219 24-599): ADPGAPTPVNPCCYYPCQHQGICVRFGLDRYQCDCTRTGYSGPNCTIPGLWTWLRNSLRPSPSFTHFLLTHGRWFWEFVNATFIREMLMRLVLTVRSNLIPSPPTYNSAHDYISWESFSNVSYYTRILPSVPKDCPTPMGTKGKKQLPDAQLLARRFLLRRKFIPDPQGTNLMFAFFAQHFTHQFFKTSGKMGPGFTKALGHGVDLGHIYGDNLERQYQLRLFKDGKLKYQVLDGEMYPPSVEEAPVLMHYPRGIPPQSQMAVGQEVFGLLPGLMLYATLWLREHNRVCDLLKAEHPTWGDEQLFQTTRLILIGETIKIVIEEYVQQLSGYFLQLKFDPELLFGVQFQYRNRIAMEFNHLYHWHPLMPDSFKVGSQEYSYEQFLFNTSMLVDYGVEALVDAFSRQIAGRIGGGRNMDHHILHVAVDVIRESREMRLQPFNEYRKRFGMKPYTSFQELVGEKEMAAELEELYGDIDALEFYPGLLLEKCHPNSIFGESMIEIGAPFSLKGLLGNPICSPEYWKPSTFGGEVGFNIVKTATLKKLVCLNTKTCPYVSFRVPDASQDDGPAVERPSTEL
Description: as §1, §2

[6] = 100 mg/kg PO, 60 minutes before acetic acid
[7] = 200 mg/kg PO, 60 minutes before acetic acid
[8] = 400 mg/kg PO, 60 minutes before acetic acid

COc1ccc(/C=C/C(=O)Nc2ccccc2C(=O)O)cc1OC [Tranilast, 2-[[3-(3,4-dimethoxyphenyl)-1-oxo-2-propenyl]amino]benzoic acid]
No. of Writhing Average [1, 6]: 15
% Inhibition [1, 6]: 12%
No. of Writhing Individual [1, 6]: 19 and 15 and 16 and 17 and 9
No. of Writhing Average [1, 7]: 13
% Inhibition [1, 7]: 24%
No. of Writhing Individual [1, 7]: 10 (2×) and 19 and 9 and 16
No. of Writhing Individual ([1]; 400 mg/kg PO, 60 minutes before acetic acid (0.5%, 20 ml/kg IP), 5 to 10 minute period): 3 and 16 and 2 and 10 and 14
No. of Writhing Average [1, 8]: 9
% Inhibition [1, 8]: 47%
inhibition of acetic acid-induced writhing across doses ([1]; 100, 200 and 400 mg/kg PO): dose-dependent inhibition
number of activated astrocytes in the spinal cord (GFAP staining) [2]: significantly reduced
anti-collagen IgG1 or IgG2a levels in sera ([3]; 200 mg/kg/day from the day of immunisation): no change
anti-type II collagen IgG1 and IgG2a levels in sera ([3]; established CIA, 100, 200 or 400 mg/kg/day over 10 days): no differences
effect on the activity of the COX-2 enzyme [4]: no effect
inhibition at 10 µM ([4]; 10 μM, n=2): 0%
effect on the activity of the COX-1 enzyme [5]: no effect
inhibition at 10 µM [5]: -2%
